One assay deals with human Nav1.7 (Homo sapiens, UniProt Q15858). The assay is described as follows: FLIPR membrane potential dye assay (alternative fluorescence assay) in Nav1.7 expressing cells. It is filed as cell-based. As to conditions: Table 7.
For a further assay, the target named is hNav1.7 (Homo sapiens, UniProt Q15858). The assay is described as follows: Electrophysiology (EP) whole-cell patch clamp assay in hNav1.7 expressing HEK-293 cells. It counts as cell-based. As to conditions: Table 7; affinity for inactivated channels; read-out: Nav1.7 Activity (μM) EP assay Ki. The method, then:
The hNav1.7 expressing HEK-293 cells were plated on 35 mm culture dishes pre-coated with poly-D-lysine in standard DMEM culture media (Mediatech, Inc., Herndon, Va.) and incubated in a 5% CO2 incubator at 37° C. Cultured cells were used approximately 12-48 h after plating.
On the day of experimentation, the 35 mm dish was placed on the stage of an inverted microscope equipped with a perfusion system that continuously perfuses the culture dish with fresh recording media. A gravity driven superfusion system was used to apply test solutions directly to the cell under evaluation. This system consists of an array of glass pipette glass connected to a motorized horizontal translator. The outlet of the shooter was positioned approximately 100 μm from the cell of interest.
Whole cell currents were recorded using the whole-cell patch clamp configuration using an Axopatch 200B amplifier (Axon Instruments, Foster City Calif.), 1322A A/D converter (Axon Instruments) and pClamp software (v. 8; Axon Instruments) and stored on a personal computer. Gigaseals were formed and the whole-cell configuration was established in voltage clamp mode, and membrane currents generated by hNav1.7 were recorded in gap-free mode. Borosilicate glass pipettes have resistance values between 1.5 and 2.0 MΩ when filled with pipette solution and series resistance (<5 MΩ) was compensated 75-80%. Signals were sampled at 50 kHz and low pass filtered at 3 kHz.
After establishing the whole-cell configuration in voltage clamp mode, two voltage protocols were run to establish: 1) the holding potential; and 2) the test potential for each cell.
To determine a membrane potential at which the majority of channels are in the resting state, a standard steady-state inactivation (SSIN) protocol was run using 100 ms prepulses×10 mV depolarizing steps. The holding potential for testing resting block (Vh1) was 20 mV more hyperpolarized than the first potential where inactivation is observed with the inactivation protocol.
From this holding potential a standard I-V protocol was run to determine the potential at which the maximal current (Imax) was elicited. This potential was the test potential (Vt).
The compound testing protocol was a series of 10 ms depolarizations from the Vh1 (determined from the SSIN) to the Vt (determined from the I-V protocol) repeated every 10-15 seconds. […] Washout of the compound was attempted by superfusing with control solution once steady-state block was observed. The fractional response was calculated as follows: FR=I(after drug)/I(control), where I is the peak current amplitude and was used for estimating resting block dissociation constant, Kr: Kr=[drug]*{FR/(1−FR)}, where [drug] is the concentration of a drug.
To assess the block of inactivated channels the holding potential was depolarized such that 20-50% of the current amplitude was reduced when pulsed to the same Vt as above. The magnitude of this depolarization depends upon the initial current amplitude and the rate of current loss due to slow inactivation. This was the second holding potential (Vh2). The current reduction was recorded to determine the fraction of available channels at this potential (h). h=I@Vh2/Imax.
At this membrane voltage a proportion of channels are in the inactivated state, and thus inhibition by a blocker includes interaction with both resting and inactivated channels.
To determine the potency of the test compound on inactivated channels, a series of currents were elicited by 10 ms voltage steps from Vh2 to Vt every 10-15 seconds. After establishing a stable baseline, the low concentration of the compound was applied. Multiple cumulative concentrations may have to be applied to identify a concentration that will block between 40-60% of the current. Washout was attempted to re-establish baseline. Fractional responses were measured with respect to a projected baseline to determine Kapp. Kapp=[drug]*{FR/(1−FR)}, where [drug] is the concentration of a drug. […]
A general note: In patch-clamp work, channel activity is measured electrically.

Chain of hNav1.7 (Q15858 1-1977 isoform Q15858-3): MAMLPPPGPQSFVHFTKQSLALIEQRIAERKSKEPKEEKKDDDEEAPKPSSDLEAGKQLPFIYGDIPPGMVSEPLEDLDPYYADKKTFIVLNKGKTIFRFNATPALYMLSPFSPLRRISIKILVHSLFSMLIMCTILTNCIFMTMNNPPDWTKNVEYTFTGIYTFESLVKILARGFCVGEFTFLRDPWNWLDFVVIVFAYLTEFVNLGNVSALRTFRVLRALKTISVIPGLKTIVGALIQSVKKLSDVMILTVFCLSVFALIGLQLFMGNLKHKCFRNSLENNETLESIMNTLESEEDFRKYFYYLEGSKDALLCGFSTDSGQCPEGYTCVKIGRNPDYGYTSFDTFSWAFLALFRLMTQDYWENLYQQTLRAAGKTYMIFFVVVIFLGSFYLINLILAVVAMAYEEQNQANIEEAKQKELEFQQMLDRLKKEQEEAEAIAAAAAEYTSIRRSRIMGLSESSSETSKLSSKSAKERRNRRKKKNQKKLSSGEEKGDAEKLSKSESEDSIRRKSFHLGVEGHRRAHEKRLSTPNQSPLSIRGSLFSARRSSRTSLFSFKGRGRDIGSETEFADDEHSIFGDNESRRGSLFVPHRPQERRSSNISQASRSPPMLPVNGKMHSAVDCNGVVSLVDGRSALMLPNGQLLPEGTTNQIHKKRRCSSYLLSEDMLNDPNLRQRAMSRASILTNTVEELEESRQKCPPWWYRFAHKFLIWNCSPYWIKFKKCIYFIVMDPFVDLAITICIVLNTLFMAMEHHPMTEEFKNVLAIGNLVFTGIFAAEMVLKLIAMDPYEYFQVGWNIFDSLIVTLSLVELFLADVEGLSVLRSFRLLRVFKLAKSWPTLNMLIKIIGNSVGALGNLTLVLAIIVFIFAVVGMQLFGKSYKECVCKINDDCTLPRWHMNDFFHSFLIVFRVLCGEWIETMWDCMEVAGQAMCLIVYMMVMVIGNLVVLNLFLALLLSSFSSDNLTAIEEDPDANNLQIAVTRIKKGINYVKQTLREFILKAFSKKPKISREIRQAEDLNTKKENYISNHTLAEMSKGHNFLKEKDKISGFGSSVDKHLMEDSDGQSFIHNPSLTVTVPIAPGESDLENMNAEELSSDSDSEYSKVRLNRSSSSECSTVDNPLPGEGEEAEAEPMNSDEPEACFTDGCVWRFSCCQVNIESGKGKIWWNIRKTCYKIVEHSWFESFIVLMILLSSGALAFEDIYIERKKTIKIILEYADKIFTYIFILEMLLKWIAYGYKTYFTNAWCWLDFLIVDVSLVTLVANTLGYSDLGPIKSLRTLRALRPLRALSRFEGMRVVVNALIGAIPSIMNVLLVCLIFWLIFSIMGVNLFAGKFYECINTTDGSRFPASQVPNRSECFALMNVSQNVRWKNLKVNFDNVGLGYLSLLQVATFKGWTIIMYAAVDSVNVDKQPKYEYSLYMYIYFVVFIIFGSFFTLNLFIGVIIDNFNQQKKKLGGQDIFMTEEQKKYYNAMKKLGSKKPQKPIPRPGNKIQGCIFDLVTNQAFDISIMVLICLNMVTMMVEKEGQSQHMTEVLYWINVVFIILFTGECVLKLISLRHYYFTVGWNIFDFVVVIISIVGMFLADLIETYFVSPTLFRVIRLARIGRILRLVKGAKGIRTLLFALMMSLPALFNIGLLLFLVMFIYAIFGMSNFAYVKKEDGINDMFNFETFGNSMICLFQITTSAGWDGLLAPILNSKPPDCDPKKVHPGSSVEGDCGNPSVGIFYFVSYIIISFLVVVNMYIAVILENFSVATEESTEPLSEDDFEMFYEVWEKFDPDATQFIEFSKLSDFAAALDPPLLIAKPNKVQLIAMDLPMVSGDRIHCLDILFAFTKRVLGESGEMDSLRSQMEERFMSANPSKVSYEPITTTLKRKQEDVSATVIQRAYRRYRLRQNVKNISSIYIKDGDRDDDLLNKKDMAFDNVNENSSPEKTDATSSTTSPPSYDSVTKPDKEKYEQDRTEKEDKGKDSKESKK
Chain of human Nav1.7 (Q15858 1-1977 isoform Q15858-3): as above

One may read the IC50 as the concentration at which inhibition is half-maximal. Read a low IC50 as higher potency. In turn, `NC(=O)c1cc(O[C@H]2CCNC2=O)nc(-c2ccc(Cc3ccc(C(F)(F)F)cn3)cc2)n1` [Cpd No. 229, (S)-6-((2-oxopyrrolidin-3-yl)oxy)-2-(4-((5-(trifluoromethyl)pyridin-2-yl)methyl)phenyl)pyrimidine-4-carboxamide] yielded a half-inhibitory concentration (IC50) at human Nav1.7 of 0.58 µM. In addition, the Ki at hNav1.7 is 0.62 µM.

In turn, `NC(=O)c1cc(O[C@H]2CCNC2=O)nc(N2[C@@H]3CC[C@H]2C[C@@H](Oc2ccc(C(F)(F)F)cn2)C3)n1` [Cpd No. 224, 6-(((S)-2-oxopyrrolidin-3-yl)oxy)-2-((1R,3S,5S)-3-((5-(trifluoromethyl)pyridin-2-yl)oxy)-8-azabicyclo[3.2.1]octan-8-yl)pyrimidine-4-carboxamide] came in with an IC50 at human Nav1.7 of 1.01 µM. Besides, at hNav1.7, the Ki is 0.81 µM.

With `NC(=O)c1cc(N[C@H]2CCNC2=O)nc(-c2ccc(Oc3ccc(C(F)F)cn3)cc2)n1` [Cpd No. 220, (S)-2-(4-((5-(difluoromethyl)-pyridin-2-yl)oxy)phenyl)-6-((2-oxopyrrolidin-3-yl)amino)-pyrimidine-4-carboxamide], on human Nav1.7, the IC50 is 2.76 µM.

Regarding `C[C@H](Nc1cc(C(N)=O)nc(-c2ccc(Cc3ccc(C(F)(F)F)cn3)cc2)n1)C(N)=O` [Cpd No. 228, (S)-6-((1-amino-1-oxopropan-2-yl)amino)-2-(4-((5-(trifluoro-methyl)pyridin-2-yl)methyl)-phenyl)pyrimidine-4-carboxamide], the IC50 on human Nav1.7 turned out to be 1.1 µM. For the same molecule, the Ki on hNav1.7 came out at 1.1 µM.

At human Nav1.7, `Cn1nccc1-c1cc(Oc2ccc(C(F)(F)F)cc2)ccc1-c1nc(N[C@H]2CCNC2=O)cc(C(N)=O)n1` [Cpd No. 219, (S)-2-(2-(1-methyl-1H-pyrazol-5-yl)-4-(4-(trifluoromethyl)-phenoxy)phenyl)-6-((2-oxopyrrolidin-3-yl)amino)-pyrimidine-4-carboxamide] displayed an IC50 of 0.94 µM.

On to `C[C@H](Nc1cc(C(N)=O)nc(N2CC[C@@H](Oc3ccc(C(F)(F)F)cc3)C2)n1)C(N)=O` [Cpd No. 226, 6-(((S)-1-amino-1-oxopropan-2-yl)amino)-2-((R)-3-(4-(trifluoromethyl)-phenoxy)pyrrolidin-1-yl)pyrimidine-4-carboxamide], for which, at human Nav1.7, the IC50 is 3.23 µM.

Regarding `NC(=O)c1cc(O[C@H]2CCNC2=O)nc(-c2ccc(Oc3ccc(C(F)(F)F)cn3)cc2)n1` [Cpd No. 227, (S)-6-((2-oxopyrrolidin-3-yl)oxy)-2-(4-((5-(trifluoro-methyl)pyridin-2-yl)oxy)phenyl)pyrimidine-4-carboxamide], the IC50 against human Nav1.7 is 0.55 µM. Also, the Ki on hNav1.7 turned out to be 0.15 µM.

In turn, `CC(=O)c1ccc(Oc2ccc(-c3nc(N[C@H]4CCNC4=O)cc(C(N)=O)n3)cc2)nc1` [Cpd No. 217, (S)-2-(4-((5-acetylpyridin-2-yl)oxy)phenyl)-6-((2-oxo-pyrrolidin-3-yl)amino)-pyrimidine-4-carboxamide] returned an IC50 against human Nav1.7 of over 20 µM.

At human Nav1.7, `CCN(CC)Cc1cc(C(F)(F)F)ccc1Oc1ccc(-c2nc(N[C@H](C)C(N)=O)cc(C(N)=O)n2)cc1` [Cpd No. 215, (R)-6-((1-amino-1-oxopropan-2-yl)amino)-2-(4-(2-((diethylamino)methyl)-4-(trifluoromethyl)phenoxy)phenyl)pyrimidine-4-carboxamide] returned an IC50 of 7.35 µM. For the same molecule, at hNav1.7, the Ki is 1.39 µM.

Take `NC(=O)c1cc(O[C@H]2CCNC2=O)nc(-c2ccc(Oc3ccc(C4CC4)cn3)cc2)n1` [Cpd No. 234, (S)-2-(4-((5-cyclopropylpyridin-2-yl)oxy)phenyl)-6-((2-oxopyrrolidin-3-yl)oxy)-pyrimidine-4-carboxamide]: the IC50 on human Nav1.7 is 1.2 µM. In addition, the Ki on hNav1.7 is 0.67 µM.

For `NC(=O)c1cc(O[C@H]2CCNC2=O)nc(-c2ccc(Oc3ccc(C(F)(F)F)cc3)cc2CN2CCOCC2)n1` [Cpd No. 232, (S)-2-(2-(morpholinomethyl)-4-(4-(trifluoromethyl)-phenoxy)phenyl)-6-((2-oxopyrrolidin-3-yl)oxy)-pyrimidine-4-carboxamide], at human Nav1.7, the concentration for half-maximal inhibition (IC50) is 10 to 20 µM.

Molecule `CCN(CC)Cc1cc(C(F)(F)F)ccc1Oc1ccc(-c2nc(O[C@H]3CCNC3=O)cc(C(N)=O)n2)cc1` [Cpd No. 216, (S)-2-(4-(2-((diethylamino)-methyl)-4-(trifluoromethyl)-phenoxy)phenyl)-6-((2-oxopyrrolidin-3-yl)oxy)-pyrimidine-4-carboxamide] yielded a 50% inhibitory concentration (IC50) on human Nav1.7 of 1.21 µM.

In turn, `C[C@H](Nc1cc(C(N)=O)nc(-c2ccc(N3Cc4cc(Cl)ccc4OCC3=O)cc2)n1)C(N)=O` [Cpd No. 222, (S)-6-((1-amino-1-oxopropan-2-yl)amino)-2-(4-(7-chloro-3-oxo-2,3-dihydrobenzo-[f][1,4]oxazepin-4(5H)-yl)phenyl)pyrimidine-4-carboxamide] yielded an IC50 against human Nav1.7 of over 20 µM.

As to `Cn1cc(-c2ccc(-c3nc(N[C@H]4CCNC4=O)cc(C(N)=O)n3)cc2)c2ccc(C(F)(F)F)cc21` [Cpd No. 218, (S)-2-(4-(1-methyl-6-(trifluoromethyl)-1H-indol-3-yl)phenyl)-6-((2-oxopyrrolidin-3-yl)amino)pyrimidine-4-carboxamide], it took 4.03 µM to reach half-maximal inhibition against human Nav1.7 (IC50).

As for `C[C@H](Nc1cc(C(N)=O)nc(N2CC[C@H](Oc3ccc(C(F)(F)F)cc3)C2)n1)C(N)=O` [Cpd No. 225, 6-(((S)-1-amino-1-oxopropan-2-yl)amino)-2-((S)-3-(4-(trifluoro-methyl)phenoxy)pyrrolidin-1-yl)pyrimidine-4-carboxamide], the IC50 against human Nav1.7 lay within 10 to 20 µM.

In the case of `NC(=O)c1cc(N[C@H]2CCNC2=O)nc(-c2ccc(N3Cc4cc(Cl)ccc4OCC3=O)cc2)n1` [Cpd No. 221, (S)-2-(4-(7-chloro-3-oxo-2,3-dihydrobenzo[f][1,4]oxazepin-4(5H)-yl)phenyl)-6-((2-oxopyrrolidin-3-yl)amino)-pyrimidine-4-carboxamide], on human Nav1.7, the concentration for half-maximal inhibition (IC50) is over 20 µM.

Turning to `C[C@H](Nc1cc(C(N)=O)nc(-c2ccc(N3CCOc4cc(F)ccc43)cc2)n1)C(N)=O` [Cpd No. 223, (S)-6-((1-amino-1-oxopropan-2-yl)amino)-2-(4-(7-fluoro-2,3-dihydro-4H-benzo[b][1,4]oxazin-4-yl)phenyl)pyrimidine-4-carboxamide], the midpoint of inhibition against human Nav1.7, the IC50, lay at 3.78 µM.

For the molecule `NC(=O)c1cc(O[C@H]2CCNC2=O)nc(-c2ccc(Oc3ccc(C(F)(F)F)cc3)cc2CN2CCCCC2)n1` [Cpd No. 231, (S)-6-((2-oxopyrrolidin-3-yl)oxy)-2-(2-(piperidin-1-ylmethyl)-4-(4-(trifluoromethyl)-phenoxy)phenyl)pyrimidine-4-carboxamide], the IC50 against human Nav1.7 is over 20 µM.

`NC(=O)c1cc(O[C@H]2CCNC2=O)nc(-c2ccc(Oc3ccc(C(F)(F)F)cc3CN3CCCC3)cc2)n1` [Cpd No. 230, (S)-6-((2-oxopyrrolidin-3-yl)oxy)-2-(4-(2-(pyrrolidin-1-ylmethyl)-4-(trifluoromethyl)-phenoxy)phenyl)pyrimidine-4-carboxamide] yielded an IC50 against human Nav1.7 of 1.72 µM. Besides, the Ki at hNav1.7 came to 0.74 µM.
